Like-named read-outs stand apart in the source and are kept apart here.

The subject of series [1] is Neuro 2A cells. As to the kind of experiment: Selective toxicity (ratio of cytotoxicity/minimum effective dose). Type of series: cell-based, mouse. From the text: 2. No specific test method for selective toxicity of the compounds is known, therefore the selective toxicity is defined as the ratio of cytotoxicity/minimum effective dose.
Series [2] is described as follows: Cytotoxic action on Neuro 2A cells. The format is cell-based. To be noted: mouse, no attached cells observed in more than 2/3 of the whole cells, read-out: Cytotoxicity (B). The procedure:
(§1) Morphological changes of Neuro 2A cells are observed according to the method of Baglioni et al. [J. Biol. Chem., 266: 18620 (1991)].
Neuro 2A cells were plated at a density of 1×10^4 cells/cm^2 in a 24-hole plate, and cultured in MEM-H with 10% FBS. On the next day, lactacystin or lactacystin derivatives were added at the concentration of 0.05-100 μM, and morphological changes of the cells with time were observed by phase contrast microscopy.

Series [3] has as its system Neuro 2A cells. Put plainly: Activity of neuritogenesis (bipolar outgrowth of neurites) in Neuro 2A cells, minimum effective dose. The format is cell-based, mouse. The settings on record: Mus musculus, N2a, read-out: Minimum effective dose (A). The procedure:
as §1
Neuro 2A cells were plated at a density of 1×10^4 cells/cm^2 in a 24-hole plate, and cultured in MEM-H with 10% FBS.

Setting [4] is: Neuro 2A cells, concentration in which approximately 20% of whole cells showed bipolar outgrowth of neurites.

As to `COC(=O)[C@]1([C@@H](O)C(C)C)NC(=O)[C@H](C)[C@@H]1O` [Example 1, .tau.-lactam methyl ester], in the series with Neuro 2A cells [1], the “Selective toxicity (B/A)” value was found to be 8. Moreover, the MCC in series [2] was 12.5 µM. Besides, the minimal effective concentration in the series on Neuro 2A cells [3] (setting [4]) turned out to be 1.56 µM.
Taken in the same sequence, the figures for `CC(C)[C@H](O)[C@@]1(C(=O)SCCC(=O)O)NC(=O)[C@H](C)[C@@H]1O` [Example 2, des-N-acetylaminolactacystin] were 8, 1.56 µM and 0.2 µM.
Taken in the same sequence, the figures for `CCOC(=O)CCSC(=O)[C@]1([C@@H](O)C(C)C)NC(=O)[C@H](C)[C@@H]1O` [Example 3, des-N-acetylaminolactacystin ethyl ester] were 16, 3.12 µM and 0.2 µM.
Take `CC(C)[C@H](O)[C@@]1(C(=O)SCCN)NC(=O)[C@H](C)[C@@H]1O` [Example 4, des-N-acetyldescarboxylactacystin]: the “Selective toxicity (B/A)” value in the series with Neuro 2A cells [1] is on record as 8. The MCC in series [2] is 25 µM. Moreover, the minimal effective concentration in the series with Neuro 2A cells [3] (setting [4]) is 3.12 µM.
For `COC(=O)[C@H](CSC(=O)[C@]1([C@@H](O)C(C)C)NC(=O)[C@H](C)[C@@H]1O)NC(C)=O` [Example 5, lactacystin methyl ester], the “Selective toxicity (B/A)” value in the series on Neuro 2A cells [1] is 8. For the same molecule, in series [2], the MCC came out at 6.25 µM. The minimal effective concentration in the series with Neuro 2A cells [3] (setting [4]) was 0.78 µM.
With `C=CCOC(=O)[C@H](CSC(=O)[C@]1([C@@H](O)C(C)C)NC(=O)[C@H](C)[C@@H]1O)NC(C)=O` [Example 6, lactacystin allyl ester], in the series with Neuro 2A cells [1], the “Selective toxicity (B/A)” value came out at 31. Further, the MCC in series [2] stood at 6.25 µM. In addition, the minimal effective concentration with Neuro 2A cells [3] (setting [4]) was found to be 0.2 µM.
For `CCSC(=O)[C@]1([C@@H](O)C(C)C)NC(=O)[C@H](C)[C@@H]1O` [Example 7, 3-hydroxy-2-(1-hydroxy-2-methylpropyl)-4-methyl-5-oxo-2-pyrrolidine-ethanethiocarboxylate], in the series on Neuro 2A cells [1], the “Selective toxicity (B/A)” value was determined as 8. Further, the MCC in series [2] stood at 1.56 µM. In the series on Neuro 2A cells [3] (setting [4]), the minimal effective concentration turned out to be 0.2 µM.
For `CCCSC(=O)[C@]1([C@@H](O)C(C)C)NC(=O)[C@H](C)[C@@H]1O` [Example 8], in the series on Neuro 2A cells [1], the “Selective toxicity (B/A)” value amounted to 16. Also, in series [2], the MCC was 3.12 µM. Besides, in the series on Neuro 2A cells [3] (setting [4]), the minimal effective concentration was 0.2 µM.
The matching figures for `CC(C)SC(=O)[C@]1([C@@H](O)C(C)C)NC(=O)[C@H](C)[C@@H]1O` [Example 9, 3-hydroxy-2-(1-hydroxy-2-methylpropyl)-4-methyl-5-oxo-2-pyrrolidine-iso-propanethiocarboxylate]: 31, 12.5 µM and 0.4 µM.
Regarding `CCCCSC(=O)[C@]1([C@@H](O)C(C)C)NC(=O)[C@H](C)[C@@H]1O` [Example 10, 3-hydroxy-2-(1-hydroxy-2-methylpropyl)-4-methyl-5-oxo-2-pyrrolidine-butanethiocarboxylate], the “Selective toxicity (B/A)” value in the series on Neuro 2A cells [1] was found to be 31. Moreover, the MCC in series [2] was 12.5 µM. In addition, the minimal effective concentration in the series with Neuro 2A cells [3] (setting [4]) is 0.4 µM.
Taken in the same sequence, the figures for `CCC(C)SC(=O)[C@]1([C@@H](O)C(C)C)NC(=O)[C@H](C)[C@@H]1O` (stereo partly drawn) [Example 11, 3-hydroxy-2-(1-hydroxy-2-methylpropyl)-4-methyl-5-oxo-2-pyrrolidine-1-methyl-1-propanethiocarboxylate] were 31, 12.5 µM and 0.4 µM.
As to `CCCCCSC(=O)[C@]1([C@@H](O)C(C)C)NC(=O)[C@H](C)[C@@H]1O` [Example 12, 3-hydroxy-2-(1-hydroxy-2-methylpropyl)-4-methyl-5-oxo-2-pyrrolidine-1-pentanethiocarboxylate], the “Selective toxicity (B/A)” value in the series with Neuro 2A cells [1] was 16. In addition, the MCC in series [2] came to 12.5 µM. For the same molecule, the minimal effective concentration with Neuro 2A cells [3] (setting [4]) was determined as 0.8 µM.
In the case of `CC(C)[C@H](O)[C@@]1(C(=O)Sc2ccccc2)NC(=O)[C@H](C)[C@@H]1O` [Example 13, 3-hydroxy-2-(1-hydroxy-2-methylpropyl)-4-methyl-5-oxo-2-pyrrolidine-phenythiocarboxylate], the “Selective toxicity (B/A)” value in the series on Neuro 2A cells [1] was 16. Moreover, the MCC in series [2] was 12.5 µM. In the series on Neuro 2A cells [3], the minimal effective concentration worked out at 0.8 µM.
Turning to `CC(C)[C@H](O)[C@@]1(C(=O)SCCO)NC(=O)[C@H](C)[C@@H]1O` [Example 14, 3-hydroxy-2-(1-hydroxy-2-methylpropyl)-4-methyl-5-oxo-2-pyrrolidine-2-hydroxyethanethiocarboxylate], the “Selective toxicity (B/A)” value in the series with Neuro 2A cells [1] is 8. Besides, the MCC in series [2] turned out to be 25 µM. In addition, in the series on Neuro 2A cells [3] (setting [4]), the minimal effective concentration came to 3.12 µM.
In the case of `CC(C)[C@H](O)[C@@]1(C(=O)SCCCO)NC(=O)[C@H](C)[C@@H]1O` [Example 15, 3-hydroxy-2-(1-hydroxy-2-methylpropyl)-4-methyl-5-oxo-2-pyrrolidine-3-hydroxypropanethiocarboxylate], the “Selective toxicity (B/A)” value in the series on Neuro 2A cells [1] stood at 31. Besides, in series [2], the MCC was 12.5 µM. Further, the minimal effective concentration with Neuro 2A cells [3] (setting [4]) is 0.4 µM.
Take `CC(C)[C@H](O)[C@@]1(C(=O)Sc2ccc(O)cc2)NC(=O)[C@H](C)[C@@H]1O` [Example 16, 3-hydroxy-2-(1-hydroxy-2-methylpropyl)-4-methyl-5-oxo-2-pyrrolidine-4-hydroxyphenylthiocarboxylate]: the “Selective toxicity (B/A)” value in the series with Neuro 2A cells [1] worked out at 31. For the same molecule, the MCC in series [2] stood at 12.5 µM. Also, the minimal effective concentration with Neuro 2A cells [3] (setting [4]) came out at 0.4 µM.
Turning to `CNCCSC(=O)[C@]1([C@@H](O)C(C)C)NC(=O)[C@H](C)[C@@H]1O` [Example 17, 3-hydroxy-2-(1-hydroxy-2-methylpropyl)-4-methyl-5-oxo-2-pyrrolidine-2-N-methylethanethiocarboxylate], in the series on Neuro 2A cells [1], the “Selective toxicity (B/A)” value is recorded as 8. For the same molecule, the MCC in series [2] is 6.25 µM. In the series with Neuro 2A cells [3] (setting [4]), the minimal effective concentration is 0.8 µM.
On to `CC(C)[C@H](O)[C@@]1(C(=O)SCCN(C)C)NC(=O)[C@H](C)[C@@H]1O` [Example 18, 3-hydroxy-2-(1-hydroxy-2-methylpropyl)-4-methyl-5-oxo-2-pyrrolidine-2-N-dimethyl-ethanethiocarboxylate], for which the “Selective toxicity (B/A)” value with Neuro 2A cells [1] is 31. In addition, in series [2], the MCC is 6.25 µM. Also, the minimal effective concentration in the series on Neuro 2A cells [3] (setting [4]) was 0.2 µM.
With `CC(C)[C@H](O)[C@@]1(C(=O)SCC(=O)O)NC(=O)[C@H](C)[C@@H]1O` [Example 19, 3-hydroxy-2-(1-hydroxy-2-methylpropyl)-4-methyl-5-oxo-2-pyrrolidine-1-carboxymethylthiocarboxylate], the “Selective toxicity (B/A)” value with Neuro 2A cells [1] stood at 31. In addition, the MCC in series [2] is 12.5 µM. Moreover, in the series on Neuro 2A cells [3] (setting [4]), the minimal effective concentration came out at 0.4 µM.
The matching figures for `COC(=O)CSC(=O)[C@]1([C@@H](O)C(C)C)NC(=O)[C@H](C)[C@@H]1O` [Example 20, 3-hydroxy-2-(1-hydroxy-2-methylpropyl)-4-methyl-5-oxo-2-pyrrolidine-methoxycarbonylthiocarboxylate]: 16, 12.5 µM and 0.8 µM.
As to `COC(=O)CCSC(=O)[C@]1([C@@H](O)C(C)C)NC(=O)[C@H](C)[C@@H]1O` [Example 21, 3-hydroxy-2-(1-hydroxy-2-methylpropyl)-4-methyl-5-oxo-2-pyrrolidine-methoxycarbonylethylthiocarboxylate], the “Selective toxicity (B/A)” value in the series with Neuro 2A cells [1] is reported as 8. Moreover, the MCC in series [2] was determined as 1.56 µM. Also, the minimal effective concentration in the series on Neuro 2A cells [3] (setting [4]) is 0.2 µM.

Values taken from US5869675A, “Lactacystin derivatives” (The Kitasato Institute, priority 1994, dated 1999).
